Laboratory results taken from US4015974A, “Amido phosphorothiolates” (priority 1972, dated 1977).
Converted amounts (≈) assume the structure as drawn.

Tests used:
Assay type in all cases: in vivo
[1] = test system: rice stem borer (Chilo suppressalis); assay: Lethal effect on rice stem borer (Table 6); details: 50 % emulsifiable concentrate, 1000 fold dilute solution, 4 days after application
Excerpt: Eggs just before hatch of the rice stem borer were applied in a ratio of 100/pot near the root of rice plants grown up into the tillering stage in an […] Wagner's pot. After eggs were hatched and the larvae entered into stems of rice plants, an 1000 fold dilute solution of each 50 % emulsifiable concentrates of the present compounds was applied by means of a turn table.

[2] = test system: radish; assay: Pre-emergence application, herbicidal effect on radish (Table 1); parameters: key: 0: not damaged; 5: completely killed; details: 20 days after application, score 0-5
Procedure, shortened: (§1)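 Pre-emergence soil application of wettable powders diluted in water over covered seeds (~10 cm pots). Greenhouse growth; visual 0–5 rating (0 none, 5 dead) at 20 days.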

[3] = test system: carmine mite (Tetranychus telavius); assay: Lethal effect on carmine mite, leaf dipping (Table 3); details: foliar, 48 h
Experimental: A large number of carmine mite adult were made parasitic on leaves of potted kidney beans at a 2-leaves stage which had elapsed 10 days after sowing. The leaves of kidney bean on which carmine mites had been made parasitic were dipped for 1 minute in each aqueous solution of the present compounds of wettable powder type. Water was given to the leaves not to kill them, and after 48 hours the death and alive were observed microscopically to calculate the mortality. Values of LC50 were obtained from the mortality.

[4] = test system: rice; assay: Water application, phytotoxicity on rice (Table 2); parameters: key: 0: no effect; 1: very slightly affected; 2: slightly affected; 3: moderately affected; 4: considerably affected; 5: completely killed; details: 25 days, score 0-5
Procedure, shortened: (§2)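 Under water-lodged conditions, wettable-powder test compounds are applied to paddy soil carrying transplanted rice (3-leaf) and sown barnyard grass. Activity on these and on spontaneously emerged broad-leaved weeds is graded 0 to 5 twenty-five days later.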

[5] = test system: common purslane (Portulaca oleracea); assay: Pre-emergence application, herbicidal effect on common purslane (Table 1); parameters: key: 0: not damaged; 5: completely killed; details: 20 days after application, score 0-5
Procedure, shortened: as §1

[6] = test system: common lambsquarter (Chenopodium album); assay: Pre-emergence application, herbicidal effect on common lambsquarter (Table 1); parameters: key: 0: not damaged; 5: completely killed; details: 20 days after application, score 0-5
Procedure, shortened: as §1

[7] = test system: redroot pigweed (Amaranthus retroflexus); assay: Pre-emergence application, herbicidal effect on redroot pigweed (Table 1); parameters: key: 0: not damaged; 5: completely killed; details: 20 days after application, score 0-5
Procedure, shortened: as §1

[8] = test system: nematode; assay: Effect on nematode (Table 7); parameters: tested at 500 ppm; details: 500 p.p.m., 24 hours
Experimental: 0.5 ml. of a nematode-containing aqueous solution separated from food according to Baermann's method was placed in a test tube with ground stopper containing 0.5 ml. of an aqueous dilute solution of each emulsifiable concentrates of the present compounds. The concentration of the active ingredient in the mixture was adjusted to 500 p.p.m. After 24 hours, the death and alive were observed microscopically to calculate the mortality.

[9] = test system: broad-leaved weeds, e.g., monochoria, false pimpernel and toothcup; assay: Water application, herbicidal effect on broad-leaved weeds (Table 2); parameters: key: 0: not damaged; 5: completely killed; details: 25 days, score 0-5
Procedure, shortened: as §2

[10] = test system: barnyard grass (Echinochloa crus-galli); assay: Pre-emergence application, herbicidal effect on barnyard grass (Table 1); parameters: key: 0: not damaged; 5: completely killed; details: 20 days after application, score 0-5
Procedure, shortened: as §1

[11] = test system: large crabgrass (Digitaria sanguinalis); assay: Pre-emergence application, herbicidal effect on large crabgrass (Table 1); parameters: key: 0: not damaged; 5: completely killed; details: 20 days after application, score 0-5
Procedure, shortened: as §1

[12] = test system: barnyard grass (Echinochloa crus-galli); assay: Water application, herbicidal effect on barnyard grass (Table 2); parameters: key: 0: not damaged; 5: completely killed; details: 25 days, score 0-5
Procedure, shortened: as §2

CCOP(=O)(SCC(=O)N1CCCCC1C)SCC(C)C (centres unmarked) [Compound 6]
Mortality [1]: 75.0%

CCCCSP(=O)(OC)SCC(=O)N1CCCCC1C (centres unmarked) [Compound 31]
Mortality [1]: 69.5%

CCOC(=O)CC(SP(=S)(OC)OC)C(=O)OCC (centres unmarked) [Malathion, reference compound]
Mortality [1]: 41.3%

CCOP(=O)(SCC(=O)N1CCCCC1C)SCc1ccccc1 (centres unmarked) [Compound 11]
Herbicidal effect, radish ([2]; 10 g./a.): 0 | Herbicidal effect, radish ([2]; 20 g./a.): 0 | Herbicidal effect, radish ([2]; 40 g./a.): 0 | LC50 [3]: 50 µg/mL (≈ 129 µM) | Phytotoxicity on rice ([4]; 10 g/a): 0 | Phytotoxicity on rice ([4]; 20 g/a): 0 | Phytotoxicity on rice ([4]; 40 g/a): 0 | Herbicidal effect, common purslane ([5]; 10 g./a.): 4 | Herbicidal effect, common purslane ([5]; 20 g./a.): 4 | Herbicidal effect, common purslane ([5]; 40 g./a.): 5 | Herbicidal effect, common lambsquarter ([6]; 10 g./a.): 4 | Herbicidal effect, common lambsquarter ([6]; 20 g./a.): 4 | Herbicidal effect, common lambsquarter ([6]; 40 g./a.): 5 | Herbicidal effect, redroot pigweed ([7]; 10 g./a.): 4 | Herbicidal effect, redroot pigweed ([7]; 20 g./a.): 5 | Herbicidal effect, redroot pigweed ([7]; 40 g./a.): 5 | Mortality [8]: 100% | Herbicidal effects, broad-leaved weeds ([9]; 10 g/a): 5 | Herbicidal effects, broad-leaved weeds ([9]; 20 g/a): 5 | Herbicidal effects, broad-leaved weeds ([9]; 40 g/a): 5 | Herbicidal effect, barnyard grass ([10]; 10 g./a.): 4 | Herbicidal effect, barnyard grass ([10]; 20 g./a.): 5 | Herbicidal effect, barnyard grass ([10]; 40 g./a.): 5 | Herbicidal effect, large crabgrass ([11]; 10 g./a.): 4 | Herbicidal effect, large crabgrass ([11]; 20 g./a.): 5 | Herbicidal effect, large crabgrass ([11]; 40 g./a.): 5 | Herbicidal effects, barnyard grass ([12]; 10 g/a): 5 | Herbicidal effects, barnyard grass ([12]; 20 g/a): 5 | Herbicidal effects, barnyard grass ([12]; 40 g/a): 5

C=CCSP(=O)(OCCC)SCC(=O)N1CCC(C)CC1 (centres unmarked) [Compound 18]
Herbicidal effect, radish ([2]; 10 g./a.): 0 | Herbicidal effect, radish ([2]; 20 g./a.): 0 | Herbicidal effect, radish ([2]; 40 g./a.): 0 | Phytotoxicity on rice ([4]; 10 g/a): 0 | Phytotoxicity on rice ([4]; 20 g/a): 0 | Phytotoxicity on rice ([4]; 40 g/a): 0 | Herbicidal effect, common purslane ([5]; 10 g./a.): 4 | Herbicidal effect, common purslane ([5]; 20 g./a.): 4 | Herbicidal effect, common purslane ([5]; 40 g./a.): 5 | Herbicidal effect, common lambsquarter ([6]; 10 g./a.): 4 | Herbicidal effect, common lambsquarter ([6]; 20 g./a.): 5 | Herbicidal effect, common lambsquarter ([6]; 40 g./a.): 5 | Herbicidal effect, redroot pigweed ([7]; 10 g./a.): 4 | Herbicidal effect, redroot pigweed ([7]; 20 g./a.): 4 | Herbicidal effect, redroot pigweed ([7]; 40 g./a.): 5 | Herbicidal effects, broad-leaved weeds ([9]; 10 g/a): 5 | Herbicidal effects, broad-leaved weeds ([9]; 20 g/a): 5 | Herbicidal effects, broad-leaved weeds ([9]; 40 g/a): 5 | Herbicidal effect, barnyard grass ([10]; 10 g./a.): 4 | Herbicidal effect, barnyard grass ([10]; 20 g./a.): 5 | Herbicidal effect, barnyard grass ([10]; 40 g./a.): 5 | Herbicidal effect, large crabgrass ([11]; 10 g./a.): 5 | Herbicidal effect, large crabgrass ([11]; 20 g./a.): 5 | Herbicidal effect, large crabgrass ([11]; 40 g./a.): 5 | Herbicidal effects, barnyard grass ([12]; 10 g/a): 5 | Herbicidal effects, barnyard grass ([12]; 20 g/a): 5 | Herbicidal effects, barnyard grass ([12]; 40 g/a): 5 | Mortality [1]: 76.4%

C=C(C)CSP(=O)(OCC)SCC(=O)N1CCCCC1C (centres unmarked) [Compound 35]
Mortality [1]: 95.0%

CCOP(=O)(SCCC(C)C)SCC(=O)N1CCCCC1C (centres unmarked) [Compound 7]
Herbicidal effect, radish ([2]; 10 g./a.): 0 | Herbicidal effect, radish ([2]; 20 g./a.): 0 | Herbicidal effect, radish ([2]; 40 g./a.): 0 | LC50 [3]: 18.5 µg/mL (≈ 50.3 µM) | Phytotoxicity on rice ([4]; 10 g/a): 0 | Phytotoxicity on rice ([4]; 20 g/a): 0 | Phytotoxicity on rice ([4]; 40 g/a): 0 | Herbicidal effect, common purslane ([5]; 10 g./a.): 5 | Herbicidal effect, common purslane ([5]; 20 g./a.): 5 | Herbicidal effect, common purslane ([5]; 40 g./a.): 5 | Herbicidal effect, common lambsquarter ([6]; 10 g./a.): 5 | Herbicidal effect, common lambsquarter ([6]; 20 g./a.): 5 | Herbicidal effect, common lambsquarter ([6]; 40 g./a.): 5 | Herbicidal effect, redroot pigweed ([7]; 10 g./a.): 4 | Herbicidal effect, redroot pigweed ([7]; 20 g./a.): 5 | Herbicidal effect, redroot pigweed ([7]; 40 g./a.): 5 | Mortality [8]: 100% | Herbicidal effects, broad-leaved weeds ([9]; 10 g/a): 5 | Herbicidal effects, broad-leaved weeds ([9]; 20 g/a): 5 | Herbicidal effects, broad-leaved weeds ([9]; 40 g/a): 5 | Herbicidal effect, barnyard grass ([10]; 10 g./a.): 5 | Herbicidal effect, barnyard grass ([10]; 20 g./a.): 5 | Herbicidal effect, barnyard grass ([10]; 40 g./a.): 5 | Herbicidal effect, large crabgrass ([11]; 10 g./a.): 5 | Herbicidal effect, large crabgrass ([11]; 20 g./a.): 5 | Herbicidal effect, large crabgrass ([11]; 40 g./a.): 5 | Herbicidal effects, barnyard grass ([12]; 10 g/a): 5 | Herbicidal effects, barnyard grass ([12]; 20 g/a): 5 | Herbicidal effects, barnyard grass ([12]; 40 g/a): 5

C=C(Cl)CSP(=O)(OCC)SCC(=O)N1CCCCC1C (centres unmarked) [Compound 9]
Herbicidal effect, radish ([2]; 10 g./a.): 0 | Herbicidal effect, radish ([2]; 20 g./a.): 0 | Herbicidal effect, radish ([2]; 40 g./a.): 0 | Phytotoxicity on rice ([4]; 10 g/a): 0 | Phytotoxicity on rice ([4]; 20 g/a): 0 | Phytotoxicity on rice ([4]; 40 g/a): 0 | Herbicidal effect, common purslane ([5]; 10 g./a.): 5 | Herbicidal effect, common purslane ([5]; 20 g./a.): 5 | Herbicidal effect, common purslane ([5]; 40 g./a.): 5 | Herbicidal effect, common lambsquarter ([6]; 10 g./a.): 4 | Herbicidal effect, common lambsquarter ([6]; 20 g./a.): 5 | Herbicidal effect, common lambsquarter ([6]; 40 g./a.): 5 | Herbicidal effect, redroot pigweed ([7]; 10 g./a.): 4 | Herbicidal effect, redroot pigweed ([7]; 20 g./a.): 5 | Herbicidal effect, redroot pigweed ([7]; 40 g./a.): 5 | Mortality [8]: 100% | Herbicidal effects, broad-leaved weeds ([9]; 10 g/a): 5 | Herbicidal effects, broad-leaved weeds ([9]; 20 g/a): 5 | Herbicidal effects, broad-leaved weeds ([9]; 40 g/a): 5 | Herbicidal effect, barnyard grass ([10]; 10 g./a.): 5 | Herbicidal effect, barnyard grass ([10]; 20 g./a.): 5 | Herbicidal effect, barnyard grass ([10]; 40 g./a.): 5 | Herbicidal effect, large crabgrass ([11]; 10 g./a.): 5 | Herbicidal effect, large crabgrass ([11]; 20 g./a.): 5 | Herbicidal effect, large crabgrass ([11]; 40 g./a.): 5 | Herbicidal effects, barnyard grass ([12]; 10 g/a): 5 | Herbicidal effects, barnyard grass ([12]; 20 g/a): 5 | Herbicidal effects, barnyard grass ([12]; 40 g/a): 5 | Mortality [1]: 100%
